{"source": "patent US20160361291A1", "about": "“METHODS FOR INCREASING SKELETAL MUSCLE PROTEIN SYNTHESIS USING GREEN TEA EXTRACT” (ABBOTT LABORATORIES, priority 2013, published 2016)", "key": {"[1]": {"tested_on": "19S regulatory particle ubiquitin proteasome subunits", "assay": "Western blot of 19S regulatory particle ubiquitin proteasome subunits, 8-week diet study", "type": "in vivo, Sprague Dawley rats", "conditions": "200 mg/kg body weight EGCg per day in diet, 8 weeks", "procedure": "(§1) Each of 12 aged Sprague Dawley rats (SD) rats (20 months) were chronically fed the following diets ad libitum for 8 weeks to evaluate the effects on the progression of sarcopenia in the rats:\n(§2) Control diet: AIN-93M (AIN-93M diets are well known balanced diets for rodents); and\n(§3) Test diet: AIN-93M+200 mg/kg body weight of EGCg.\n(§4) The AIN-93M diet was supplemented with EGCG (in the form of TEAVIGO® brand green tea extract) at a concentration of 5 gm/kg diet to deliver a dose of 200 mg/kg body weight of EGCg per day to the SD rat (approximate body weight 500 gm, approximate food intake=20 gm/d) in the test diet.\n(§5) Conversely, markers of muscle atrophy such as the 19S regulatory and 20S core particle ubiquitin proteasome subunits, MuRF1, and MAFbx were lower at the end of the 8 weeks in those SD rats fed the test diet (EGCg treatment) as compared to those fed the control diet. […] The components of the Ubiquitin Proteasome Pathway (UPP) as shown in FIGS. 5-8 were measured by western blotting in rats treated with either the test (EGCg treatment) or the control diets."}, "C2C12 muscle myotubes": {"tested_on": "C2C12 muscle myotubes", "assay": "Muscle protein synthesis in C2C12 myotubes under TNF-α stress (radiolabeled phenylalanine incorporation)", "type": "cell-based, mouse", "conditions": "for protein synthesis as compared to the control: synthesis measured over following 4 hours", "procedure": "The role of EGCg, in the form of […]® brand green tea extract that contains about 95% EGCg (available from DSM of the Netherlands), in stimulating muscle protein synthesis was evaluated in an in vitro cell-based assay using mouse C2C12 muscle myotubes. This assay measured the incorporation of radiolabeled phenylalanine into myotubes in response to various stimuli. C2C12 myoblasts passaged in FCS DMEM (Fetal Calf Serum Dulbecco's Modified Eagle's Medium) were differentiated to myotubes in HS DMEM (Horse Serum Dulbecco's Modified Eagle's Medium). The myotubes were labeled for 24 hours with L-[2,6-3H] phenylalanine prior to compound experimentation. They were then incubated with TNF-α (50 ng/ml) for 2 hours in the absence, or presence of 10 μM or 50 μM of EGCg, and protein synthesis was measured over the following 4 hours."}, "[2]": {"tested_on": "20S core particle ubiquitin proteasome subunits", "assay": "Western blot of 20S core particle ubiquitin proteasome subunits, 8-week diet study", "type": "in vivo, Sprague Dawley rats", "conditions": "200 mg/kg body weight EGCg per day in diet, 8 weeks", "procedure": "as §1, §2, §3, §4, §5"}, "mTOR": {"tested_on": "mTOR", "assay": "mTOR activation in skeletal muscle of aged rats, 8-week diet study", "type": "in vivo, Sprague Dawley rats", "conditions": "200 mg/kg body weight EGCg per day in AIN-93M diet, 8 weeks, rats aged 20 months; p<0.05", "procedure": "as §1, §2, §3, §4"}, "muscle fiber": {"tested_on": "muscle fiber", "assay": "Muscle fiber cross sectional area of aged rats, 8-week diet study", "type": "in vivo, Sprague Dawley rats", "conditions": "200 mg/kg body weight EGCg per day in diet, 8 weeks; p=0.06", "procedure": "as §1, §2, §3, §4\n(§6) This increased activation was associated with increases in gastrocnemius muscle wet weight and muscle fiber cross sectional area, as shown respectively in FIGS. 3 and 4. Excised gastrocnemius muscles were weighed at the end of the 8 weeks. […] With respect to the muscle fiber cross sectional area, 8-micron muscle sections from the SD rats were dissected, mounted, and stained using hematoxylin & eosin at the end of the 8 week period. Approximately 400 fibers were measured per sample. The results are shown in FIG. 4, in which the SD rats fed the test diet (EGCg treatment) have higher cross sectional areas as compared to that of the SD rats fed the control diet (p=0.06)."}, "[3]": {"tested_on": "muscle ring finger protein 1 (MuRF1)", "assay": "Western blot of MuRF1, 8-week diet study", "type": "in vivo, Sprague Dawley rats", "conditions": "200 mg/kg body weight EGCg per day in diet, 8 weeks", "procedure": "as §1, §2, §3, §4, §5"}, "gastrocnemius muscle": {"tested_on": "gastrocnemius muscle", "assay": "Gastrocnemius muscle wet weight of aged rats, 8-week diet study", "type": "in vivo, Sprague Dawley rats", "conditions": "200 mg/kg body weight EGCg per day in diet, 8 weeks, rats aged 20 months", "procedure": "as §1, §2, §3, §4, §6"}, "[4]": {"tested_on": "muscle atrophy f-box (MAFbx)", "assay": "Western blot of MAFbx, 8-week diet study", "type": "in vivo, Sprague Dawley rats", "conditions": "200 mg/kg body weight EGCg per day in diet, 8 weeks", "procedure": "as §1, §2, §3, §4, §5"}}, "data": [{"compound": "O=C(O[C@@H]1Cc2c(O)cc(O)cc2O[C@@H]1c1cc(O)c(O)c(O)c1)c1cc(O)c(O)c(O)c1", "note": "[EGCg, epigallocatechin gallate]", "values": [{"measurement": "19S regulatory particle ubiquitin proteasome subunit expression vs control diet", "setting": "[1]", "value": "lower"}, {"measurement": "protein synthesis as compared to the control", "setting": "C2C12 muscle myotubes; 10 μM EGCg plus TNF-α (50 ng/ml, 2 hours), p<0.05", "value": 104, "unit": "%"}, {"measurement": "protein synthesis as compared to the control", "setting": "C2C12 muscle myotubes; 50 μM EGCg plus TNF-α (50 ng/ml, 2 hours), p<0.01", "value": 109, "unit": "%"}, {"measurement": "20S core particle ubiquitin proteasome subunit expression vs control diet", "setting": "[2]", "value": "lower"}, {"measurement": "increase in intramuscular phosphorylated mTOR expression (mTOR activation) vs control diet", "setting": "mTOR", "value": 53, "unit": "%"}, {"measurement": "muscle fiber cross sectional area vs control diet", "setting": "muscle fiber", "value": "higher"}, {"measurement": "MuRF1 expression vs control diet", "setting": "[3]", "value": "lower"}, {"measurement": "greater muscle mass in excised gastrocnemius muscle vs control diet", "setting": "gastrocnemius muscle", "value": "approximately 5%"}, {"measurement": "MAFbx expression vs control diet", "setting": "[4]", "value": "lower"}]}, {"compound": "tumor necrosis factor alpha [TNFα, reference compound]", "values": [{"measurement": "drop in protein synthesis as compared to the control", "setting": "C2C12 muscle myotubes; TNF-α alone, 50 ng/ml, 2 hours, p<0.05", "value": 16, "unit": "%"}]}]}
